Our source for the melting point and IC50 values is article PMC6274419, “Synthesis and Anticancer Activities of Glycyrrhetinic Acid Derivatives” (Molecules, 2016).

One data set has as its system hTERT-RPE1 cells. Nature of the data set: MTT cytotoxicity assay, hTERT-RPE1 normal cells. It is filed as cell-based, human. The following applies: normal human retinal pigment epithelial cell line hTERT-RPE1, MTT method, 24 h treatment, mean ± SD; read-out: IC50 hTERT-RPE1. As to the method:
(§1) The anticancer activities of compounds 17–24, 41–56 against MCF-7, MDA-MB-231 and hTERT-RPE1 cells were determined in vitro by an MTT assay. […] The data was calculated and presented as IC50 values in Table 1.
(§2) The cytotoxicities of the compounds were evaluated by the MTT assay, which is based on the conversion of MTT to formazan crystals by mitochondrial dehydrogenases. […] The medium was incubated with 20 μL of 5 mg/mL MTT solution for 3 h in a humidified incubator containing 5% CO2. The purple coloured formazan crystals formed in the wells were dissolved in DMSO and their absorbances were measured at 570 nm with a microplate reader. Cell viability was expressed as a percentage of the value in control cultures.
On the technique in general: Formazan colour is commonly taken as a measure of viable cells.

The test system of another data set is MCF-7 cells. In words: MTT cytotoxicity assay, MCF-7. Type of data set: cell-based, human. Conditions: MCF7; human breast cancer cell line MCF-7, MTT method, 24 h treatment, mean ± SD; read-out: IC50 MCF-7. The protocol:
as §1, §2

The test system of another data set is MDA-MB-231 cells. Nature of the data set: MTT cytotoxicity assay, MDA-MB-231. Conditions: human breast cancer cell line MDA-MB-231, MTT method, 24 h treatment, mean ± SD; read-out: IC50 MDA-MB-231. It is filed as cell-based, human. As to the method: The data was calculated and presented as IC50 values in Table 1.
as §2

Structures can show the parent of a compound that is named as a salt.

The melting point is the temperature, or range, at which the solid turns liquid. By IC50 is commonly meant the concentration that gives 50% inhibition. In the case of `COC(=O)/C=C/c1cccc(OC(=O)[C@@]2(C)CC[C@]3(C)CC[C@]4(C)C(=CC(=O)[C@@H]5[C@@]6(C)CC[C@H](O)C(C)(C)[C@@H]6CC[C@]54C)[C@@H]3C2)c1` [Compound 23, trans-3-Hydroxycinnamic acid methyl ester 3β-hydroxy-11-oxo-olean-12-en-30-oate], the melting point fell in the range of 188 to 190 °C. Further, in the data set on hTERT-RPE1 cells, the IC50 came to 24.1 ± 0.88 µM. For the same compound, the IC50 in the data set with MCF-7 cells is 14.9 ± 0.75 µM. In addition, the IC50 with MDA-MB-231 cells was found to be 20.8 ± 1.2 µM.

The compound `CCOC(=O)/C=C/c1ccc(OC)c(OC(=O)[C@@]2(C)CC[C@]3(C)CC[C@]4(C)C(=CC(=O)[C@@H]5[C@@]6(C)CC[C@H](O)C(C)(C)[C@@H]6CC[C@]54C)[C@@H]3C2)c1` [Compound 22, Isoferulic acid ethyl ester 3β-hydroxy-11-oxo-olean-12-en-30-oate] gave a melting point of 210 to 213 °C. Moreover, in the data set with hTERT-RPE1 cells, the IC50 was found to be 21.1 ± 0.73 µM. Moreover, the IC50 in the data set with MCF-7 cells was found to be 19.3 ± 1.01 µM. Besides, the IC50 in the data set on MDA-MB-231 cells amounted to 9.41 ± 1.03 µM.

`COC(=O)/C=C/c1ccc(OC(=O)[C@@]2(C)CC[C@]3(C)CC[C@]4(C)C(=CC(=O)[C@@H]5[C@@]6(C)CC[C@H](O)C(C)(C)[C@@H]6CC[C@]54C)[C@@H]3C2)c(OC)c1` [Compound 17, Ferulic acid methyl ester 3β-hydroxy-11-oxo-olean-12-en-30-oate] yielded a melting point of 229 to 231 °C. In addition, in the data set with hTERT-RPE1 cells, the IC50 was found to be 17.3 ± 1.21 µM. In addition, the 50% inhibitory concentration (IC50) in the data set with MCF-7 cells is 13.6 ± 0.93 µM. Further, the IC50 in the data set with MDA-MB-231 cells is 5.03 ± 0.82 µM.

`COC(=O)/C=C/c1ccc(OC)c(OC(=O)[C@@]2(C)CC[C@]3(C)CC[C@]4(C)C(=CC(=O)[C@@H]5[C@@]6(C)CC[C@H](O)C(C)(C)[C@@H]6CC[C@]54C)[C@@H]3C2)c1` [Compound 21, Isoferulic acid methyl ester 3β-hydroxy-11-oxo-olean-12-en-30-oate] showed a melting point of 215 to 217 °C. Also, the IC50 with hTERT-RPE1 cells was determined as 18.6 ± 0.54 µM. In the data set on MCF-7 cells, the IC50 came out at 8.54 ± 0.67 µM. Also, in the data set with MDA-MB-231 cells, the IC50 turned out to be 7.31 ± 0.16 µM.

Consider `CCOC(=O)/C=C/c1cccc(OC(=O)[C@@]2(C)CC[C@]3(C)CC[C@]4(C)C(=CC(=O)[C@@H]5[C@@]6(C)CC[C@H](O)C(C)(C)[C@@H]6CC[C@]54C)[C@@H]3C2)c1` [Compound 24, trans-3-Hydroxycinnamic acid ethyl ester 3β-hydroxy-11-oxo-olean-12-en-30-oate], for which the melting point is 173 to 175 °C. Also, in the data set with hTERT-RPE1 cells, the IC50 turned out to be 22.9 ± 0.68 µM. For the same compound, the 50% inhibitory concentration (IC50) in the data set with MCF-7 cells stood at 19.3 ± 0.98 µM. Further, in the data set with MDA-MB-231 cells, the IC50 was found to be 23.2 ± 1.07 µM.

Regarding `CCOC(=O)/C=C/c1ccc(OC(=O)[C@@]2(C)CC[C@]3(C)CC[C@]4(C)C(=CC(=O)[C@@H]5[C@@]6(C)CC[C@H](O)C(C)(C)[C@@H]6CC[C@]54C)[C@@H]3C2)c(OC)c1` [Compound 18, Ferulic acid ethyl ester 3β-hydroxy-11-oxo-olean-12-en-30-oate], the melting point lay in the range of 224 to 226 °C. Moreover, in the data set with hTERT-RPE1 cells, the IC50 was found to be 22.8 ± 0.97 µM. The IC50 in the data set on MCF-7 cells stood at 22.5 ± 1.26 µM. In the data set with MDA-MB-231 cells, the IC50 turned out to be 8.14 ± 0.76 µM.

With `COC(=O)/C=C/c1ccc(OC(=O)[C@@]2(C)CC[C@]3(C)CC[C@]4(C)C(=CC(=O)[C@@H]5[C@@]6(C)CC[C@H](OC(=O)[C@@H](N)CCSC)C(C)(C)[C@@H]6CC[C@]54C)[C@@H]3C2)cc1` (as salt: hydrochloride) [Compound 45, trans-4-Hydroxycinnamic acid methyl ester 3β-(l-methionine)-11-oxo-olean-12-en-30-oate hydrochloride], the melting point lay within 205 to 207 °C.

The compound `COC(=O)/C=C/c1ccc(OC(=O)[C@@]2(C)CC[C@]3(C)CC[C@]4(C)C(=CC(=O)[C@@H]5[C@@]6(C)CC[C@H](O)C(C)(C)[C@@H]6CC[C@]54C)[C@@H]3C2)cc1` [Compound 19, trans-4-Hydroxycinnamic acid methyl ester 3β-hydroxy-11-oxo-olean-12-en-30-oate] came in with a melting point of 202 to 205 °C. In the data set on hTERT-RPE1 cells, the IC50 amounted to 29.6 ± 1.16 µM. Besides, the IC50 in the data set with MCF-7 cells is 20.3 ± 1.47 µM. The IC50 in the data set with MDA-MB-231 cells was 14.4 ± 0.52 µM.

Compound `CCOC(=O)/C=C/c1ccc(OC)c(OC(=O)[C@@]2(C)CC[C@]3(C)CC[C@]4(C)C(=CC(=O)[C@@H]5[C@@]6(C)CC[C@H](OC(=O)[C@@H](N)CC[Se]C)C(C)(C)[C@@H]6CC[C@]54C)[C@@H]3C2)c1` (as salt: hydrochloride) [Compound 52, Isoferulic acid ethyl ester 3β-(l-selenomethionine)-11-oxo-olean-12-en-30-oate hydrochloride] had a melting point of 196 to 198 °C.

For the compound `CCOC(=O)/C=C/c1ccc(OC)c(OC(=O)[C@@]2(C)CC[C@]3(C)CC[C@]4(C)C(=CC(=O)[C@@H]5[C@@]6(C)CC[C@H](OC(=O)[C@@H](N)CCSC)C(C)(C)[C@@H]6CC[C@]54C)[C@@H]3C2)c1` (as salt: hydrochloride) [Compound 51, Isoferulic acid ethyl ester 3β-(l-methionine)-11-oxo-olean-12-en-30-oate hydrochloride], the melting point lay in the range of 192 to 195 °C.

`CCOC(=O)/C=C/c1ccc(OC(=O)[C@@]2(C)CC[C@]3(C)CC[C@]4(C)C(=CC(=O)[C@@H]5[C@@]6(C)CC[C@H](O)C(C)(C)[C@@H]6CC[C@]54C)[C@@H]3C2)cc1` [Compound 20, trans-4-Hydroxycinnamic acid ethyl ester 3β-hydroxy-11-oxo-olean-12-en-30-oate] gave a melting point of 195 to 196 °C. Moreover, in the data set on hTERT-RPE1 cells, the IC50 stood at 28.4 ± 0.87 µM. Moreover, the IC50 with MCF-7 cells is 24.4 ± 1.36 µM. Moreover, in the data set with MDA-MB-231 cells, the IC50 was found to be 14.5 ± 0.58 µM.
